# Experiments:
# [1] = test system: Sca1+ c-Kit+ lineage negative cells (multipotent hematopoietic stem cells); details: mice, 30 mg/kg or 100 mg/kg daily gavage, 70 days, either dose
# Experimental: (§1) The study consisted of 3 groups of BALB/cByJ mice (10 mice per group). Mice received daily gavage treatments of either 30 mg/kg, 100 mg/kg of dexpramipexole or vehicle control for 70 days. Bone marrow was processed into single cell suspensions and cells were stained with fluorescent conjugate antibodies to analyze the developmental stages of cells by flow cytometry. […] The columns depict the mean for each group and the error bar indicates the standard error of the mean. The asterisks denote statistical significance between treatment groups and the vehicle control group by one-way ANOVA (* p≦0.05, ** p≦0.01).
# [2] = test system: Siglec-F lo IL5Rα hi positive cells (developing B cells, basophils and other cell populations); details: mice, 30 mg/kg or 100 mg/kg daily gavage, 70 days, either dose
# Experimental: as §1
# [3] = test system: eosinophils; assay type: in vivo; details: minipigs, 7.5, 25, 75/50 mg/kg daily oral gavage, 39 weeks
# Experimental: In a 39-week repeat-dose toxicology study, minipigs were dosed at 0, 7.5, 25, and 75 mg/kg dexpramipexole by daily oral gavage through Study Day 45 and at 0, 7.5, 25, and 50 mg/kg dexpramipexole from Study Day 46 to study completion.
# [4] = test system: myeloid and lymphoid cell types, red blood cells, platelets; details: Phase 3, 300 mg daily, month 6
# Experimental: Hematological parameters were measured in a Phase 3 study of dexpramipexole in ALS. Because of the high rate of mortality among ALS patients, including subjects in the Phase 3 trial, hematology parameters obtained at the month 6 visit were chosen for analysis to remove the effect of study dropouts in later months.
# [5] = test system: eosinophils
# Experimental: (§2) In FIG. 2A the time period marked “W” represents the end of the 4-week washout following the month 3 time point.
# The phase 3 clinical trial was a double-blind study of dexpramipexole in ALS patients randomized 1:1 to placebo or dexpramipexole 300 mg daily treatment. Hematology parameters were collected as part of routine safety monitoring. Eosinophil and basophil counts were retrospectively analyzed by visit.
# Eosinophil levels were summarized over available time points and analyzed by ANOVA testing the effect of treatment vs. placebo on mean changes in serum eosinophil counts from baseline. Subjects with baseline eosinophils from 0 to 0.02×10^9/L (constituting less than 2% of all subjects analyzed) were censored from the primary analysis because of the inherent limitation to observe a decline from baseline.
# Statistical analysis of the change from baseline was performed at month 6 to remove the effect of study dropouts in later months.
# [6] = test system: eosinophils; remark: listed apart in the source
# Experimental: as §2
# The Phase 2 trial was a two-part, double-blind study that evaluated the safety, tolerability, and clinical effects of dexpramipexole in ALS patients.
# In Part 1, subjects were randomized to placebo (n=27), 50 mg/day (n=23), 150 mg/day (n=26), or 300 mg/day dexpramipexole (n=26) for 12 weeks.
smiles,measurement,setting,value
"CCCN[C@@H]1CCc2nc(N)sc2C1 [dexpramipexole, (6R)-2-amino-4,5,6,7-tetrahydro-6-(propylamino) benzothiazole]",number of Sca1+ c-Kit+ lineage negative cells in bone marrow vs vehicle control,[1],lowered
same,Siglec-F lo IL5Rα hi positive cells in bone marrow vs vehicle control,[2],lowered
same,effect on eosinophils,[3],dose- and time-dependent reduction in eosinophils
same,change of all myeloid and lymphoid cell types measured,[4],statistically significant mean reductions from baseline
same,peripheral blood eosinophil count,"[5]; Phase 3, after 8-12 weeks of treatment, persisted for the duration of the trial",profound decrease
same,eosinophil counts in subject with elevated eosinophil counts at baseline,"[5]; Phase 3 subject with highest baseline eosinophil count, through month 12",decrease in eosinophil counts
same,effect on eosinophil counts,[6]; Phase 2 trial in ALS subjects,dose- and time-dependent decrease in eosinophil counts
same,eosinophil counts in subject with hypereosinophilia at baseline,"[6]; one Phase 2 subject, Part 2 baseline, through month 12",decrease in eosinophil counts
